The test deals with 282377-053-R-J1-PDC complex spheroid viability. The test is described as follows: Anticancer human tumor 282377-053-R-J1-PDC patient-derived colon adenocarcinoma cell line growth inhibition [POLQ]. The settings on record: for viability, T/C: stronger effect = lower value. In a few lines: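 Complex spheroid viability model combining PDC tumour cells with endothelial (HUVEC) and MSC stromal cells. Novobiocin, ART-558 or RP6685 were tested singly and in combination with standard and investigational anticancer drugs. Each was titrated in half-log steps from near clinical Cmax, or from 10 microM where Cmax was unknown.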

Where [1] appears, read: curve of first compound, second compound 0.0316 µM.
[2] abbreviates: curve of first compound, second compound 0.1 µM.
Where [3] appears, read: curve of first compound, second compound 0.316 µM.
Setting [4] is: curve of first compound, second compound 1 µM.
[5] abbreviates: curve of first compound, second compound 3.16 µM.
[6] abbreviates: curve of first compound, second compound 10 µM.
The mark [7] stands for this setting: second compound 0.0316 µM, first compound 0.0316 µM.
Setting [8] is: second compound 0.0316 µM, first compound 0.1 µM.
[9] abbreviates: second compound 0.0316 µM, first compound 0.316 µM.
Where [10] appears, read: second compound 0.0316 µM, first compound 1 µM.
Where [11] appears, read: second compound 0.0316 µM, first compound 3.16 µM.
The mark [12] stands for this setting: second compound 0.0316 µM, first compound 10 µM.
The mark [13] stands for this setting: second compound 0.1 µM, first compound 0.0316 µM.
Setting [14] is: second compound 0.1 µM, first compound 0.1 µM.
Setting [15] is: second compound 0.1 µM, first compound 0.316 µM.
Setting [16] is: second compound 0.1 µM, first compound 1 µM.
Setting [17] is: second compound 0.1 µM, first compound 3.16 µM.
The mark [18] stands for this setting: second compound 0.1 µM, first compound 10 µM.
[19] abbreviates: second compound 0.316 µM, first compound 0.0316 µM.
Setting [20] is: second compound 0.316 µM, first compound 0.1 µM.
The mark [21] stands for this setting: second compound 0.316 µM, first compound 0.316 µM.
The mark [22] stands for this setting: second compound 0.316 µM, first compound 1 µM.
[23] abbreviates: second compound 0.316 µM, first compound 3.16 µM.
[24] abbreviates: second compound 0.316 µM, first compound 10 µM.
The mark [25] stands for this setting: second compound 1 µM, first compound 0.0316 µM.
Setting [26] is: second compound 1 µM, first compound 0.1 µM.
Where [27] appears, read: second compound 1 µM, first compound 0.316 µM.
Where [28] appears, read: second compound 1 µM, first compound 1 µM.
The mark [29] stands for this setting: second compound 1 µM, first compound 3.16 µM.
Setting [30] is: second compound 1 µM, first compound 10 µM.
Setting [31] is: second compound 3.16 µM, first compound 0.0316 µM.
Where [32] appears, read: second compound 3.16 µM, first compound 0.1 µM.
The mark [33] stands for this setting: second compound 3.16 µM, first compound 0.316 µM.
Where [34] appears, read: second compound 3.16 µM, first compound 1 µM.
The mark [35] stands for this setting: second compound 3.16 µM, first compound 3.16 µM.
The mark [36] stands for this setting: second compound 3.16 µM, first compound 10 µM.
Where [37] appears, read: second compound 10 µM, first compound 0.0316 µM.
Setting [38] is: second compound 10 µM, first compound 0.1 µM.
[39] abbreviates: second compound 10 µM, first compound 0.316 µM.
[40] abbreviates: second compound 10 µM, first compound 1 µM.
[41] abbreviates: second compound 10 µM, first compound 3.16 µM.
Setting [42] is: second compound 10 µM, first compound 10 µM.

The values that follow come from PubChem BioAssay AID1963852 (Molecular Pharmacology Branch, DTP, NCI, 2024).

Several values for one entry are separate records, joined by “and”; a condition that tells them apart may be missing. Identical values can stand only once.
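Further: spheroids exposed to compounds for seven days.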
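Wherever viability, T/C is given: 100% = DMSO vehicle control viability.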

For orientation: IC50 means the concentration needed to halve the response being measured. The term viability, T/C denotes the result in the treated group divided by that in the control group, in per cent. As to `O=C(Nc1ccc(O)c(NS(=O)(=O)c2ccc(F)cc2)c1)c1ccc(-c2ccccc2)cc1` + COC1C(OC(N)=O)C(O)C(Oc2ccc3c(O)c(NC(=O)c4ccc(O)c(CC=C(C)C)c4)c(=O)oc3c2C)OC1(C)C, the IC50 under setting [1] is over 10 µM; the IC50 under setting [2] is over 10 µM; the 50% inhibitory concentration (IC50) under setting [3] is over 10 µM; the IC50 under setting [4] is over 10 µM; the 50% inhibitory concentration (IC50) under setting [5] is over 10 µM; the IC50 under setting [6] was over 10 µM. The viability, T/C under setting [7] was 120%; the viability, T/C under setting [8] was 117%; the viability, T/C under setting [9] is 109%; the viability, T/C under setting [10] is 113%; the viability, T/C under setting [11] was 133%; the viability, T/C under setting [12] was 94.5%. Also, the viability, T/C reads like this: under setting [13], 122%; under setting [14], 125%; under setting [15], 117%; under setting [16], 127%; under setting [17], 127%; under setting [18], 97%. Also, the viability, T/C is 115% under setting [19]; 108% under setting [20]; 100% under setting [21]; 108% under setting [22]; 112% under setting [23]; 94.5% under setting [24]. Moreover, the viability, T/C under setting [25] is 116%; the viability, T/C under setting [26] is 99.6%; the viability, T/C under setting [27] is 118%; the viability, T/C under setting [28] was 115%; the viability, T/C under setting [29] is 120%; the viability, T/C under setting [30] is 122%. The viability, T/C under setting [31] is 98.2%; the viability, T/C under setting [32] is 118%; the viability, T/C under setting [33] is 106%; the viability, T/C under setting [34] was 114%; the viability, T/C under setting [35] is 99.8%; the viability, T/C under setting [36] was 104%. Besides, the viability, T/C by setting is: under setting [37], 127%; under setting [38], 95.3%; under setting [39], 94.9%; under setting [40], 127%; under setting [41], 104%; under setting [42], 93.5%.

On to `CC(C)n1c(=O)n(C)c2cnc3cc(F)c(-c4ccc(OCCCN5CCCCC5)nc4)cc3c21` + COC1C(OC(N)=O)C(O)C(Oc2ccc3c(O)c(NC(=O)c4ccc(O)c(CC=C(C)C)c4)c(=O)oc3c2C)OC1(C)C, for which the IC50 was over 10 µM under setting [1]; over 10 µM under setting [2]; over 10 µM under setting [3]; over 10 µM under setting [4]; over 10 µM under setting [5]; over 10 µM under setting [6]. The viability, T/C by setting is: under setting [7], 116%; under setting [8], 125%; under setting [9], 113%; under setting [10], 104%; under setting [11], 112%; under setting [12], 120%. For the same molecule, the viability, T/C by setting is: under setting [13], 107%; under setting [14], 116%; under setting [15], 110%; under setting [16], 104%; under setting [17], 118%; under setting [18], 103%. The viability, T/C by setting is: under setting [19], 108%; under setting [20], 93%; under setting [21], 105%; under setting [22], 108%; under setting [23], 107%; under setting [24], 89.6%. The viability, T/C is, setting by setting: under setting [25], 112%; under setting [26], 88.4%; under setting [27], 99.5%; under setting [28], 106%; under setting [29], 119%; under setting [30], 78.4%. Also, the viability, T/C was 113% under setting [31]; 114% under setting [32]; 108% under setting [33]; 114% under setting [34]; 106% under setting [35]; 101% under setting [36]. In addition, the viability, T/C is 98.2% under setting [37]; 104% under setting [38]; 93.8% under setting [39]; 99.2% under setting [40]; 95.8% under setting [41]; 98.8% under setting [42].

In the case of `CC(C)n1c(=O)n(C)c2cnc3cc(F)c(-c4ccc(OCCCN5CCCCC5)nc4)cc3c21`, the viability, T/C by setting is: (compound 0.0316 µM) 103% and 107% and 118%; (compound 0.1 µM) 133% and 106% and 113%; (compound 0.316 µM) 104% and 103% and 109%; (compound 1 µM) 103% and 118% and 107%; (compound 3.16 µM) 104% and 114% and 103%; (compound 10 µM) 104% and 108% and 105%. Besides, the IC50 (curve of compound) was over 10 µM.

In the case of `CCCS(=O)(=O)Nc1ccc(F)c(C(=O)c2c[nH]c3ncc(-c4ccc(Cl)cc4)cc23)c1F` + COC1C(OC(N)=O)C(O)C(Oc2ccc3c(O)c(NC(=O)c4ccc(O)c(CC=C(C)C)c4)c(=O)oc3c2C)OC1(C)C, the IC50 was 3.55 µM under setting [1]; 4.03 µM under setting [2]; 3.46 µM under setting [3]; 3.45 µM under setting [4]; 3.83 µM under setting [5]; 2.37 µM under setting [6]. In addition, the viability, T/C is 91.9% under setting [7]; 77.1% under setting [8]; 81.1% under setting [9]; 56.5% under setting [10]; 59.4% under setting [11]; 33.2% under setting [12]. Moreover, the viability, T/C is, setting by setting: under setting [13], 86.6%; under setting [14], 76.1%; under setting [15], 65.7%; under setting [16], 68.4%; under setting [17], 60%; under setting [18], 29.9%. The viability, T/C is 89.8% under setting [19]; 65.5% under setting [20]; 63.5% under setting [21]; 65.3% under setting [22]; 58.4% under setting [23]; 32.9% under setting [24]. Besides, the viability, T/C is, setting by setting: under setting [25], 108%; under setting [26], 63.7%; under setting [27], 80.9%; under setting [28], 58.5%; under setting [29], 66.5%; under setting [30], 30.6%. Further, the viability, T/C runs as follows: under setting [31], 93.1%; under setting [32], 82%; under setting [33], 68.7%; under setting [34], 54.9%; under setting [35], 68.4%; under setting [36], 33.2%. Further, the viability, T/C by setting is: under setting [37], 89.1%; under setting [38], 73.5%; under setting [39], 73.1%; under setting [40], 73.3%; under setting [41], 42.2%; under setting [42], 38%.

In the case of `COC1C(OC(N)=O)C(O)C(Oc2ccc3c(O)c(NC(=O)c4ccc(O)c(CC=C(C)C)c4)c(=O)oc3c2C)OC1(C)C` (stereo unspecified), the viability, T/C by setting is: (compound 0.0316 µM) 94.6% [middle of 13 runs]; (compound 0.316 µM) 105% [middle of 13 runs]; (compound 1 µM) 101% [middle of 13 runs]; (compound 3.16 µM) 101% [middle of 13 runs]; (compound 10 µM) 101% [middle of 13 runs]. Besides, where the note is “compound alone, run of 10/31/2023”, the IC50 was over 10 µM.

As to `Nc1ccc(C#CCN(C(=O)Cc2ncc(C(F)(F)F)cc2C(F)(F)F)c2ccc(F)cc2)nn1`, the viability, T/C by setting is: (compound 0.0316 µM) 92.4% [middle of 13 runs]; (compound 1 µM) 99.5% [middle of 12 runs]; (compound 3.16 µM) 102% [middle of 13 runs]; (compound 10 µM) 114% [middle of 13 runs]. Besides, the IC50 (compound alone, run of 11/06/2023) is over 10 µM.

As for `C=CCn1c(=O)c2cnc(Nc3ccc(N4CCN(C)CC4)cc3)nc2n1-c1cccc(C(C)(C)O)n1`, the viability, T/C by setting is: (compound 0.00316 µM) 107% (2×) and 111%; (compound 0.01 µM) 119% and 95.2% and 85.9%; (compound 0.0316 µM) 98% and 116% and 91.7%; (compound 0.1 µM) 103% and 95.6% and 93.7%; (compound 0.316 µM) 109% and 85.2% and 82.7%; (compound 1 µM) 81.5% and 87.5% and 68.1%. Besides, the IC50 (curve of compound) was over 1 µM.
